Source: patent US20260166039A1 (SCHRÖDINGER, INC., priority 2022, published 2026)

Target: T1, Wee1 kinase domain (Homo sapiens, UniProt P30291)
T1 construct: Wee1 kinase domain was purchased from Carna (catalog #05-177); purchased Carna 05-177
Experiment: Wee1 Kinase Biochemical Assay (ADP-Glo)
Conditions: 1 nM Wee1 enzyme, 15 uM ATP, 4 hours at 25° C
Outline: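 The reaction mix held 1 nM Wee1 kinase domain, 15 uM ATP and 2 ng/mL Poly(Lys,Tyr 4:1) substrate and was left for 4 hours at 25 °C. ADP production was then measured with ADP-Glo, and percent inhibition was derived relative to DMSO and a saturating Wee1 inhibitor.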

T1 sequence (P30291 299-569 limits assumed): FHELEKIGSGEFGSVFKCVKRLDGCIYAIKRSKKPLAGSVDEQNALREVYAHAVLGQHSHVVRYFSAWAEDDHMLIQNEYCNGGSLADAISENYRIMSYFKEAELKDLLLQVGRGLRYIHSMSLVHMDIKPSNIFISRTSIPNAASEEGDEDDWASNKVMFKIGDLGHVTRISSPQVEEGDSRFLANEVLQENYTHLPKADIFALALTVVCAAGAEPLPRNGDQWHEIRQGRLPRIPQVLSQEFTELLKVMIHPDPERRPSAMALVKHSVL

| IC50 | Compound |
| --- | --- |
| < 0.01 µM | COCCN1CCC(n2ccc(Nc3ncc4c(n3)N(c3cccc(N=S(C)(C)=O)n3)[C@@H]3CC(C)(C)OC[C@]43C)cc2=O)CC1 (single isomer, unassigned) [Example 825] |
| < 0.01 µM | CC1(C)C[C@H]2N(c3cccc(N=S(C)(C)=O)n3)c3nc(Nc4ccn(C5CCN(C6COC6)CC5)c(=O)c4)ncc3[C@@]2(C)CO1 (single isomer, unassigned) [Example 824] |

Same assay, conditions: Wee1 kinase domain, 15 uM ATP, ADP-Glo

| IC50 | Compound |
| --- | --- |
| 0.01 to 0.1 µM | CN1C[C@@H]2CN(c3ccc(Nc4ncc5c(n4)N(c4cccc(N=S(C)(C)=O)n4)[C@H]4CC(C)(C)OC[C@@]54C)cc3)C[C@@H]2C1 (single isomer, unassigned) [Example 218] |
| 0.1 to 1 µM | CNCc1cccc(N2c3nc(Nc4ccc([C@H]5CCOC5)cc4)ncc3[C@]3(C)COC(C)(C)C[C@H]23)n1 (single isomer, unassigned) [Example 39] |
| 0.01 to 0.1 µM | CC1(C)C[C@@H]2N(c3cccc(N=S(C)(C)=O)n3)c3nc(Nc4ccc([C@]5(C)CCNC5)cc4)ncc3[C@]2(C)CO1 (single isomer, unassigned) [Example 172] |
| ≥ 1 µM | CNCc1cccc(N2c3nc(Nc4ccc([C@H]5CCC(=O)N5C)cc4)ncc3[C@]3(C)COC(C)(C)C[C@H]23)n1 (single isomer, unassigned) [Example 53] |
| 0.1 to 1 µM | Cc1cc(Nc2ncc3c(n2)N(c2cccc(N=S(C)(C)=O)n2)[C@H]2CC(C)(C)OC[C@@]32C)ccc1[C@@H]1CCNC1 (single isomer, unassigned) [Example 144] |
| 0.01 to 0.1 µM | C[C@H]1COC(=O)N1c1cccc(N2c3nc(Nc4ccc(N5CCN(C)CC5)cc4)ncc3[C@@]3(C)COC(C)(C)C[C@@H]23)n1 (single isomer, unassigned) [Example 234] |
| 0.01 to 0.1 µM | C[C@H]1COC(=O)N1c1cccc(N2c3nc(Nc4ccc(N5CCCN(C)CC5)cc4)ncc3[C@]3(C)COC(C)(C)C[C@H]23)n1 (single isomer, unassigned) [Example 298] |
| 0.1 to 1 µM | CNCc1cccc(N2c3nc(Nc4ccc(N5CCC(F)(F)C5)cc4)ncc3[C@]3(C)COC(C)(C)C[C@H]23)n1 (single isomer, unassigned) [Example 21] |
| 0.01 to 0.1 µM | C[C@H]1COC(=O)N1c1cccc(N2c3nc(Nc4ccc([C@H]5CCNC5)cc4)ncc3[C@]3(C)COC(C)(C)C[C@H]23)n1 (single isomer, unassigned) [Example 278] |
| 0.01 to 0.1 µM | CN1Cc2cc(Nc3ncc4c(n3)N(c3cccc(N=S(C)(C)=O)n3)[C@H]3CC(C)(C)OC[C@@]43C)ccc2C(C)(C)C1 (single isomer, unassigned) [Example 136] |
| 0.1 to 1 µM | CC1(C)C[C@@H]2N(c3cccc(N=S(C)(C)=O)n3)c3nc(Nc4ccc(C5CNC5)c(F)c4)ncc3[C@]2(C)CO1 (single isomer, unassigned) [Example 189] |
| 0.01 to 0.1 µM | C[C@@H]1CN(c2ccc(Nc3ncc4c(n3)N(c3cccc(N5C(=O)OC[C@@H]5C)n3)[C@H]3CC(C)(C)OC[C@@]43C)cc2)CCN1C (single isomer, unassigned) [Example 312] |

Same assay, conditions: class symbols; 1 nM Wee1 enzyme, 15 uM ATP, 4 hours at 25° C.

| IC50 | Compound |
| --- | --- |
| < 0.01 µM | C[C@H]1COC(=O)N1c1cccc(N2c3nc(Nc4ccc([C@H]5CCN(C)C5)cc4)ncc3[C@@]3(C)COCC[C@@H]23)n1 [Example 793, (S)-4-methyl-3-(6-((4bR,8aR)-4b-methyl-2-((4-((R)-1-methylpyrrolidin-3-yl)phenyl)amino)-4b,7,8,8a-tetrahydropyrano[3′,4′:4,5]pyrrolo[2,3-d]pyrimidin-9(5H)-yl)pyridin-2-yl)oxazolidin-2-one] |
| 0.1 to 1 µM | CNCc1cccc(N2c3nc(Nc4ccc([C@@H]5CCNC5)cc4)ncc3[C@]3(C)COC(C)(C)C[C@H]23)n1 (single isomer, unassigned) [Example 453] |
| 0.01 to 0.1 µM | CN1C[C@H]2C[C@@H]1CN2c1ccc(Nc2ncc3c(n2)N(c2cccc(N=S(C)(C)=O)c2)[C@H]2CC(C)(C)OC[C@@]32C)cc1 [Example 714, dimethyl((3-((4bS,8aS)-4b,7,7-trimethyl-2-((4-((1R,4R)-5-methyl-2,5-diazabicyclo[2.2.1]heptan-2-yl)phenyl)amino)-4b,7,8,8a-tetrahydropyrano[3′,4′:4,5]pyrrolo[2,3-d]pyrimidin-9(5H)-yl)phenyl)imino)-16-sulfanone] |
| 0.01 to 0.1 µM | CC1(C)C[C@@H]2N(c3cccc(N4CCCC4=O)n3)c3nc(Nc4ccc([C@H]5CCNC5)cc4)ncc3[C@]2(C)CO1 [Example 637, 1-(6-((4bS,8aS)-4b,7,7-trimethyl-2-((4-((R)-pyrrolidin-3-yl)phenyl)amino)-4b,7,8,8a-tetrahydropyrano[3′,4′:4,5]pyrrolo[2,3-d]pyrimidin-9(5H)-yl)pyridin-2-yl)pyrrolidin-2-one] |
| 0.01 to 0.1 µM | CN1CC[C@@H]2CN(c3ccc(Nc4ncc5c(n4)N(c4cccc(N6CCOC6=O)n4)[C@H]4CC(C)(C)OC[C@@]54C)cc3)C[C@@H]21 [Example 706, 3-(6-((4bS,8aS)-4b,7,7-trimethyl-2-((4-((3aR,6aR)-1-methylhexahydropyrrolo[3,4-b]pyrrol-5(1H)-yl)phenyl)amino)-4b,7,8,8a-tetrahydropyrano[3′,4′:4,5]pyrrolo[2,3-d]pyrimidin-9(5H)-yl)pyridin-2-yl)oxazolidin-2-one] |
| 0.1 to 1 µM | CNCc1cccc(N2c3nc(Nc4ccc(N5CCOC[C@H]5C)cc4)ncc3[C@]3(C)COC(C)(C)C[C@H]23)n1 (single isomer, unassigned) [Example 474] |
| < 0.01 µM | CC1(C)C[C@H]2N(c3cccc(N=S(C)(C)=O)n3)c3nc(Nc4ccc(N5CC6(COC6)C5)cc4)ncc3[C@@]2(C)CO1 (single isomer, unassigned) [Example 508] |
| 0.01 to 0.1 µM | CNCc1cccc(N2c3nc(Nc4ccn(C)c(=O)c4)ncc3[C@@]3(C)COC(C)(C)C[C@@H]23)n1 (single isomer, unassigned) [Example 456] |
| < 0.01 µM | CC1(C)C[C@H]2N(c3ccccn3)c3nc(Nc4ccc(N5CCN6CC[C@@H]5C6)cc4)ncc3[C@@]2(C)CO1 [Example 808, (4bR,8aR)-N-(4-((5R)-1,4-diazabicyclo[3.2.1]octan-4-yl)phenyl)-4b,7,7-trimethyl-9-(pyridin-2-yl)-4b,5,7,8,8a,9-hexahydropyrano[3′,4′:4,5]pyrrolo[2,3-d]pyrimidin-2-amine] |
| 0.1 to 1 µM | CN1C[C@@H]2CN(c3ccc(Nc4ncc5c(n4)N(c4cccc(N6CCOC6=O)n4)[C@H]4CC(C)(C)OC[C@@]54C)cc3)C[C@@H]2C1 [Example 693, 3-(6-((4bS,8aS)-46,7,7-trimethyl-2-((4-((3aR,6aS)-5-methylhexahydropyrrolo[3,4-c]pyrrol-2(1H)-yl)phenyl)amino)-4b,7,8,8a-tetrahydropyrano[3′,4′:4,5]pyrrolo[2,3-d]pyrimidin-9(5H)-yl)pyridin-2-yl)oxazolidin-2-one] |
| ≥ 1 µM | CNCc1cccc(N2c3nc(Nc4ccc(C(C)(C)C(=O)O)cc4)ncc3[C@]3(C)COC(C)(C)C[C@H]23)n1 (single isomer, unassigned) [Example 457] |
| < 0.01 µM | CN1C[C@@H]2C[C@H]1CN2c1ccc(Nc2ncc3c(n2)N(c2cccc(N4C(=O)CCC4(C)C)n2)[C@@H]2CC(C)(C)OC[C@]32C)cc1 [Example 798, 5,5-dimethyl-1-(6-((4bR,8aR)-4b,7,7-trimethyl-2-((4-((1S,4S)-5-methyl-2,5-diazabicyclo[2.2.1]heptan-2-yl)phenyl)amino)-4b,7,8,8a-tetrahydropyrano[3′,4′:4,5]pyrrolo[2,3-d]pyrimidin-9(5H)-yl)pyridin-2-yl)pyrrolidin-2-one] |
